Assays:
[1] = employed in oral care compositions such as mouthwashes or toothpastes; cited from earlier work
[2] = Breath-freshness self-assessment (three questions) after teeth brushing, home use test; assay type: in vivo, human
Protocol: (§1) Twenty-six participants were pre-screened to ensure that they had no underlying dental problems.
(§2) A repeated measures design, with a randomised repeated trial per product was used. Three toothpastes were prepared with: • Control: peppermint flavour • EC180—150 ppm: peppermint flavour+150 ppm EC180 (concentration in toothpaste) • EC180—250 ppm: peppermint flavour+250 ppm EC180 (concentration in toothpaste)
(§3) Participants were given duplicate tubes of each toothpaste (6 tubes in total). All products were assigned different codes and presented in white tubes to prevent colour as a confounding factor.
(§4) The participants did the test each morning in their homes as per their usual teeth cleaning time (between 7:00 am and 10:00 am) and were asked to refrain from using other oral practices apart from brushing with test product. Testing was done with one product a day with a one-day separation left before testing the next product. A questionnaire was sent to them via an online link for them to complete before teeth cleaning and after teeth cleaning. Responses before teeth cleaning were recorded as their baseline scores.
The data for this test was collected through an online questionnaire set up via SurveyMonkey Audience. The questionnaires on breath-freshness and self-confidence was set up for participants to respond to at the five time-points: (i) pre-brush baseline (ii) 0 minutes immediately post-bush (iii) 30 minutes post-brush (iv) 60 minutes post-brush. A total of 47 datasets per product was input for analysis and 5 incompletes were removed.
Breath freshness was self-evaluated with a set of three questions asking (i) whole mouth clean feel; (ii) natural freshness in mouth; and (lii) cooling sensation in the mouth. […] Breath assessment recorded before teeth brushing was categorized as the baseline measure.
(§5) To evaluate a change effect from the baseline (pre-brush) to the different times post-brush, a mean difference between each time-point to the baseline mean score was calculated to obtain delta values.

[3] = Self-confidence, 9-item subscale of the modified CSAI-2 questionnaire, after teeth brushing, home use test; assay type: in vivo, human
Protocol: Individual's thoughts and feelings in relation to their self-confidence as per their perceived oral health (such as breath) were measured using a 9-item subscale of the modified Competitive State Anxiety Questionnaire (CSAI-2).
The nine items in the Self-confidence scale include five that describe positive expectations (“I feel self-confident”, “I am confident I can meet the challenge”, “I'm confident about performing well”, “I'm confident because I mentally picture myself reaching my goal”, and “I'm confident about coming through under pressure”), and four that describe a generalised feeling of calmness (“I feel calm”, “I feel comfortable”, “I feel secure”, “I feel mentally relaxed”). All items were rated on a 4-point scale anchored by 1 (“Not at all”) and 4 (“Very much so”).
as §1, §2, §3, §4
The questionnaires on breath-freshness and self-confidence was set up for participants to respond to at the five time-points: (i) pre-brush baseline (ii) 0 minutes immediately post-bush (iii) 30 minutes post-brush (iv) 60 minutes post-brush. A total of 47 datasets per product was input for analysis and 5 incompletes were removed.
Self-confidence was measured with the 9-Item subscale of the Modified Competitive State Inventory-2 (CSAI-2). The questionnaire uses a 4-point scale as follows:
1—not at all; 2—somewhat; 3—moderately so; 4—very much so.
as §5

[4] = 60 minutes from brushing with a toothpaste containing EC180

## CC(C)[C@@H]1CC[C@@H](C)C[C@H]1C(=O)Nc1ccc(CC#N)cc1 [EC180, (1R,2S,5R)—N-(4-cyanomethylphenyl)-p-menthane carboxamide]
[1]
  cooling effect: strong and long-lasting cooling effect
[2]; 10 minutes after brushing, in a flavoured tooth-paste, FIG. 1
  level of breath freshness vs flavoured tooth paste alone: same level of breath freshness
[2]; [4]
  breath freshness relative to the initial level: about 60%
[2]; up to 10 minutes after brushing, toothpaste comprising EC180
  change of breath freshness compared to immediately after brushing (0 min): only minimally increases
[3]; 10 minutes after brushing, in a flavoured tooth-paste, FIG. 2
  level of self-confidence vs flavoured tooth paste alone: significantly increased
[3]; 10 minutes after brushing, toothpaste comprising EC180
  change of level of self-confidence compared to immediately after brushing (0 min): noticeable increase
[3]; [4]
  self-confidence compared to the level attained immediately after brushing: more than 80%
[3]; in a flavoured tooth-paste, effect still observed 60 min after brushing
  period of time the level of self-confidence remained elevated after teeth brushing: up to 30 min

— patent publication US20260256667A1, “ORAL CARE COMPOSITION FOR INCREASING SELF CONFIDENCE” (GIVAUDAN SA, priority 2023, published 2026)
